Patent US20250326765A1, “PDE4B INHIBITOR AND USE THEREOF” (XIZANG HAISCO PHARMACEUTICAL CO., LTD., priority 2022, published 2025)

What was measured:
[1] = target: T1, PDE4B1 (Homo sapiens, UniProt Q07343); experiment: Effect of compounds on PDE4B1 activity (IMAP fluorescence polarization kit); format: biochemical; details: class symbols
T1 construct: purchased BPS 60041
Protocol: The IMAP Reaction Buffer containing 0.1% BSA (5×) in the kit was diluted into a 1-fold reaction buffer containing 1 mM DTT. 0.12 nM PDE4B1 (BPS, Cat #60041) was added to the 1-fold reaction buffer to form a 2-fold enzyme solution. 10 μL of the 2-fold enzyme solution was added to wells of a 384-well reaction plate. For the negative control well, 10 μL of the 1-fold reaction buffer was used instead of the enzyme solution. Centrifugation at 1000 rpm for 1 minute and incubation at room temperature for 15 minutes were carried out. 0.2 uM FAM-labeled cAMP (FAM-cAMP, Molecular Device, Cat #R7506) was added to the 1-fold reaction buffer to form a 2-fold substrate solution. 10 μL of the 2-fold substrate solution was added to each well of the 384-well reaction plate. Centrifugation at 1000 rpm for 1 minute was carried out. A reaction was carried out at room temperature for 20 minutes. IMAP Progressive Binding Buffer A (5×), IMAP Progressive Binding Buffer B (5×), and IMAP Progressive Binding Reagent (provided by IMAP FP IPP Explorer Kit) were prepared into a reaction stop solution according to the instructions for use. 60 μL of an […] reaction stop solution was added to each well of the 384-well reaction plate to stop the reaction, and the reaction product was centrifuged at 1000 rpm for 1 minute. Incubation at room temperature in the dark for 60 minutes was carried out. The mP values (Ex480/Em535 (s), Em535 (p)) were read by a microplate reader (Envision).
FP was usually represented by mP value. mP value for FP measurement=1000*(S−G*P)/(S+G*P) • S: fluorescence intensity in parallel direction • P: fluorescence intensity in perpendicular direction • G: G factor=1
(§1) [formula] • mP(sample): mP of the test compound in a reaction well • mP(negative control): mP in the negative control well • mP(positive control): mP in the positive control well
According to the calculated inhibition rate at each concentration, the IC50 value of each compound was calculated by XLFit excel add-in version 5.4.0.8 software.
Y=Bottom+(Top−Bottom)/(1+(IC50/X)^HillSlope) Fitting formula: […]

[2] = target: T2, PDE4B2 (Homo sapiens, UniProt Q07343); experiment: Effect of compounds on PDE4B2 activity (fluorescence polarization kit); format: biochemical; details: class symbols; read-out: PDE4B2 IC50
T2 construct: purchased BPS Bioscience 60343
T2 sequence (Q07343 1-564 isoform Q07343-2): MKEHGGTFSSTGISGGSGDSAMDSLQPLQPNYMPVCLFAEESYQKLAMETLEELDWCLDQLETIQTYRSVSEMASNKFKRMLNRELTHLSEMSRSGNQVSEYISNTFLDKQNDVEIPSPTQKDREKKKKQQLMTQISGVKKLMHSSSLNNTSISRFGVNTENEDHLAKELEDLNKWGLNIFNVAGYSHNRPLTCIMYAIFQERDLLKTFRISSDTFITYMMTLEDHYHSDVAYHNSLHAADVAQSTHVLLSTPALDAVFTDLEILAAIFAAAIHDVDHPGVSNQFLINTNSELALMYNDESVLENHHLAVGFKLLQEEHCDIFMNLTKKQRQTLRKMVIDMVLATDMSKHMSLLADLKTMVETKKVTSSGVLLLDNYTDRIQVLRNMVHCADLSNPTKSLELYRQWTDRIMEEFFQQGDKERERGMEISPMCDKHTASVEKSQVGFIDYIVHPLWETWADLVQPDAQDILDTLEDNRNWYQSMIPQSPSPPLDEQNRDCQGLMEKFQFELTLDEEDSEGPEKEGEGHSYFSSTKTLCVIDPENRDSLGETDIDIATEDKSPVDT
Protocol: The effect of compounds on PDE4B2 activity was detected by a fluorescence polarization kit (BPS Bioscience, Catalog #60343). According to the instructions of the kit, FAM-Cyclic-3′,5′-AMP at a final concentration of […], 1 ng/well of PDE4B2 (PDE buffer was added to the negative control well), and a compound diluted in a gradient manner (PDE buffer containing 10% DMSO was added to the positive control well) were added to each well, fully mixed, and then reacted at room temperature for 1 h. The Binding Agent was diluted with the Binding Agent Diluent (cAMP) at a ratio of 1:100 for later use, the Binding Agent dilution was taken and added to the test plate at 50 μl/well and incubated at room temperature with slow shaking for 20 minutes. After the incubation was complete, Envision was used for FP detection, with Excitation at 480 nm and Emission at 535 nm. FP was usually represented by mP value.
[formula] • I∥ (S535): fluorescence intensity in parallel direction • I⊥ (P535): fluorescence intensity in perpendicular direction • G: G factor=1
as §1
(§2) According to the calculated inhibition rate at each concentration, the IC50 value of each compound was calculated by GraphPad Prism 8 software.

[3] = target: T3, PDE4D2 (Homo sapiens, UniProt Q08499); experiment: Effect of compounds on PDE4D2 activity (fluorescence polarization kit); format: biochemical; details: class symbols
T3 construct: purchased BPS Bioscience 60345
T3 sequence (Q08499 303-809): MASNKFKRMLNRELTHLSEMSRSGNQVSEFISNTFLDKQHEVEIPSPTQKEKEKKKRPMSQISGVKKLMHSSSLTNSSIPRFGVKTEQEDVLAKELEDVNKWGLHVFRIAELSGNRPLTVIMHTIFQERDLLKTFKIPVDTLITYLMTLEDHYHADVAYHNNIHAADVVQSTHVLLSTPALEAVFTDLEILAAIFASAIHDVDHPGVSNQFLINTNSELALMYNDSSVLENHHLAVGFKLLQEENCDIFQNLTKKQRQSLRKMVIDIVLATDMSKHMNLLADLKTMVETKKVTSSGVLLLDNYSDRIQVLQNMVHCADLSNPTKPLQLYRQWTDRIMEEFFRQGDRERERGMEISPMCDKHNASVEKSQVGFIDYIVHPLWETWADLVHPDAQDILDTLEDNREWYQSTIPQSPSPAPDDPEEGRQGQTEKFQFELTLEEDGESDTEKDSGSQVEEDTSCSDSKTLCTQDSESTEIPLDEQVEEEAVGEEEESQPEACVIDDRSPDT
Protocol: The effect of compounds on PDE4D2 activity was detected by a fluorescence polarization kit (BPS Bioscience, Catalog #60345). During the reaction, 12.5 μL of 0.272 ng/well of an enzyme (final concentration: 0.068 ng/well) and 12.5 μL of the compound diluted in a gradient manner (DMSO concentration: 4%) were first pre-incubated at room temperature for 15 minutes, the same volume of the enzyme at the same concentration and 12.5 μL of PDE buffer containing 4% DMSO were added to the positive control well, and 25 μL of PDE buffer containing 2% DMSO was added to the negative control well. After completion, 25 μL of […] FAM-Cyclic-3′,5′-AMP (final concentration: […]) was added to each well, fully mixed, and then incubated at room temperature with slow shaking for 30 minutes. The Binding Agent was diluted with the Binding Agent Diluent (cAMP) at a ratio of 1:100 for later use, 100 μl/well of the Binding Agent dilution was taken and added to all wells of the test plate and incubated at room temperature with slow shaking for 1 hour.
After the incubation was complete, BMG LRBTECH microplate reader was used for FP detection, with Excitation at 485 nm and Emission at 520 nm. FP was usually represented by mP value.
[formula] • I∥ (S520): fluorescence intensity in parallel direction • I⊥ (P520): fluorescence intensity in perpendicular direction • G: G factor=1
as §1, §2

[4] = Pharmacokinetic test in mice; format: in vivo, ICR mice
Protocol: 5.1 Experimental animals: Male ICR mice, 20-25 g, 6 mice/compound. Purchased from Chengdu Ddossy Experimental Animals Co., Ltd.
5.2 Experimental design: On the day of the experiment, 42 ICR mice were randomly grouped according to their body weights. The animals were fasted with water available for 12-14 h one day before administration and fed 4 h after administration.
Before and after administration, 0.06 mL of blood was taken from the orbit under isoflurane anesthesia and placed in an EDTAK2 centrifuge tube for centrifugation at 5000 rpm at 4-C for 10 min, followed by plasma collection. The blood collection time points for the intravenous group and intragastric group were both 0 m, 5 mi, 15 mi, 30 mi, 1 h, 2 h, 4 h, 6 h, 8 h, and 24 h. Before analysis and detection, all the samples were stored at −80° C., and the samples were subjected to quantitative analysis using LC-MS/MS.

[5] = target: T4, hERG potassium ion channel (Homo sapiens, UniProt Q12809); experiment: Test for hERG potassium ion channel (manual patch-clamp, CHO cells); format: cell-based; details: CHO cells stably expressing hERG, whole cell patch-clamp; read-out: IC50, inhibition of hERG potassium channel current
T4 construct: expressed in transfected cells
T4 sequence (Q12809 whole entry): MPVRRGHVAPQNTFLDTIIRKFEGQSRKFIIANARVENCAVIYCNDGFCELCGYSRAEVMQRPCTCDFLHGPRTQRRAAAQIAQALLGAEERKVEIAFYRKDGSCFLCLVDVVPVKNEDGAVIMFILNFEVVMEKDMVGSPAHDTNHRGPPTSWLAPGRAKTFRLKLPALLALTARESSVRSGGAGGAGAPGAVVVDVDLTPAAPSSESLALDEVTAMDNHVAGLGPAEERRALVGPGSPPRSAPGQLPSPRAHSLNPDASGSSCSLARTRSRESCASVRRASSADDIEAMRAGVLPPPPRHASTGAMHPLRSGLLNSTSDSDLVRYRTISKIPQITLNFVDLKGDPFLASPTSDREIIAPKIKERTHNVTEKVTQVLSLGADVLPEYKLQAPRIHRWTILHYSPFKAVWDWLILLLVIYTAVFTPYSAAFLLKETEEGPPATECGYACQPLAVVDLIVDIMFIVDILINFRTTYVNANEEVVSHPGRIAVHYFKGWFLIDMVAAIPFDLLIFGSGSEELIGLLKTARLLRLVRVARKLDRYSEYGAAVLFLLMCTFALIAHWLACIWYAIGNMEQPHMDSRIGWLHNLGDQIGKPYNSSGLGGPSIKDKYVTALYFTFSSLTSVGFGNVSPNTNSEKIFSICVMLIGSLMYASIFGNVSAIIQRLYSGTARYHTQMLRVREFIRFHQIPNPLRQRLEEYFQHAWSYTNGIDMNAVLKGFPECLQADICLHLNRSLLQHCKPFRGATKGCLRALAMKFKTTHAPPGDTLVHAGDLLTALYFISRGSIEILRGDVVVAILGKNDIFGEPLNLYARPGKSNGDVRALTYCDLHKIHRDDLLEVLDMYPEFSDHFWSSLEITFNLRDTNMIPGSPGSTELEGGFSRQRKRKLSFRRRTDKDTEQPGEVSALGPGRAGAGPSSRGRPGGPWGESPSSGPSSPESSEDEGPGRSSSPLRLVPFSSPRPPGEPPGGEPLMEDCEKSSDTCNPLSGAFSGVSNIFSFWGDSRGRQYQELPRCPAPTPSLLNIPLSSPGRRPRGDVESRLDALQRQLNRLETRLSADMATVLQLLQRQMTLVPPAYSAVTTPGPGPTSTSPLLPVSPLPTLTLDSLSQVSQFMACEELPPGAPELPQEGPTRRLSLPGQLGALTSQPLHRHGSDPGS
Excerpt: Experimental Platform: Electrophysiological Manual Patch-Clamp System
Cell line: Chinese hamster ovary (CHO) cell line stably expressing hERG potassium ion channel
Experimental method: CHO (Chinese Hamster Ovary) cells stably expressing hERG potassium channel were subjected to a whole cell patch-clamp technique to record the hERG potassium channel current at room temperature. The glass microelectrode was made of a glass electrode blank (BF150-86-10, Sutter) by a puller. The tip resistance after filling the liquid in the electrode was about 2-5 MQ. The glass microelectrode can be connected to the patch-clamp amplifier by inserting the glass microelectrode into an amplifier probe. The clamping voltage and data recording were controlled and recorded by the pClamp 10 software through a computer. The sampling frequency was 10 kHz, and the filtering frequency was 2 kHz. After the whole cell records were obtained, the cells were clamped at −80 mV, and the step voltage that induced the hERG potassium current (IhERG) was depolarized from −80 mV to +20 mV for 2 s, then repolarized to −50 mV, and returned to −80 mV after 1 s. This voltage stimulation was given every 10 s, and the administration process was started after the hERG potassium current was confirmed to be stable (at least 1 minute). The compound was administered for at least 1 minute at each test concentration, and at least 2 cells (n: 2) were tested at each concentration.
Data processing: Data analysis processing was carried out by using pClamp 10, GraphPad Prism 5, and Excel software. The degree of inhibition on the hERG potassium current (peak value of hERG tail current induced at −50 mV) at different compound concentrations was calculated by the following formula:
[formula] • where Inhibition % represents the percentage inhibition of the compound on the hERG potassium current, and I and Io represent the amplitude of the hERG potassium current after and before administration, respectively.
Compound IC50 was calculated using GraphPad Prism 5 software by fitting according to the following equation: […]

[6] = male, ICR, mouse, iv, plasma, i.v. (5 mg/kg)
[7] = male, ICR, mouse, po, plasma, i.g. (10 mg/kg)

T1 sequence (Q07343 whole entry): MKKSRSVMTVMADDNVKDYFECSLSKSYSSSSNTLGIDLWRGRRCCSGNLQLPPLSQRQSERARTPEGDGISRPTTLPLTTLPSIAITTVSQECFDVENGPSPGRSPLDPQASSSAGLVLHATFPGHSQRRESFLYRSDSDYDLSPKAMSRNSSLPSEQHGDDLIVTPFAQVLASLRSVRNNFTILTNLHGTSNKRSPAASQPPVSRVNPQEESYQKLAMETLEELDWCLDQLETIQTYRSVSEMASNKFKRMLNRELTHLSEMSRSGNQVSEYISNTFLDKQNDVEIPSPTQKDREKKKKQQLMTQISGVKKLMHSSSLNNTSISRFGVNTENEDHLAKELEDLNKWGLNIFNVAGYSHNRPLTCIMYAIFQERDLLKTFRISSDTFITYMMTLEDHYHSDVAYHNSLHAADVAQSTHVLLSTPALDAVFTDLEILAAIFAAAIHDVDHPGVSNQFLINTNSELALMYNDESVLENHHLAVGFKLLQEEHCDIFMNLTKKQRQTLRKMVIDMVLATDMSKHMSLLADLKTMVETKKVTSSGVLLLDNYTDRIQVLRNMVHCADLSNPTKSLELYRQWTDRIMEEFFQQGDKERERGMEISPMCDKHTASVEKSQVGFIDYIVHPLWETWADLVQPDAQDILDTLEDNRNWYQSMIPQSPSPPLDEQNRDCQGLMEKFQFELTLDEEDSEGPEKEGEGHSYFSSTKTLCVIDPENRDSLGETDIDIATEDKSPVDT

SMILES | IC50 [1] [nM] | IC50 [2] [nM] | IC50 [3] [nM] | other results
[O-][S+]1CCc2nc(N3CC4C(C3)C4c3ccc(Cl)cc3)nc(NC3(CO)CCC3)c21 (stereo not shown) [Compound 20] | < 10 | 10 to 50 | < 10 | 
[O-][S@+]1CCc2nc(N3C[C@H]4CC[C@@H](C3)[C@@H]4c3ccc(Cl)cc3)nc(NC3(CO)CCC3)c21 [Compound 22] | 10 to 50 | 10 to 50 | 10 to 50 | 
[O-][S@+]1CCc2nc(N3C[C@H]4CN(c5ncc(Cl)cn5)C[C@H]4C3)nc(NC3(CO)CCC3)c21 [Compound 25] | < 10 | 10 to 50 | < 10 | 

Further lines, with some results ahead:

IC50 [1] [nM] | IC50 [2] [nM] | IC50 [3] [nM] | SMILES | other results
< 10 |  | < 10 | [O-][S@+]1CCc2nc(N3CC=C(c4ncc(Cl)cn4)CC3)nc(NC3(CO)CCC3)c21 [Compound 28] | F ([4]; i.g. (10 mg/kg)): 71.4 ± 11%; AUC(0-t) [4, 6]: 9210 ± 2070 ng·h/mL; clearance [4, 6]: 4.67 ± 1.2 mL/min/kg; half-life [4, 6]: 3.59 ± 0.19 h; Vd ([4]; male, ICR, mouse, iv, plasma, i.v. (5 mg/kg), read-out: Vdss): 1.31 ± 0.28 L/kg; AUC(0-t) [4, 7]: 26300 ± 4150 ng·h/mL; half-life [4, 7]: 7.04 ± 1.8 h
< 10 |  | < 10 | [O-][S@+]1CCc2nc(N3CC=C(c4ccc5c(c4)CC5)CC3)nc(NC3(CO)CCC3)c21 [Compound 26] | 
< 10 |  | < 10 | [O-][S@+]1CCc2nc(N3CCC=C(c4ncc(Cl)cn4)CC3)nc(NC3(CO)CCC3)c21 [Compound 34] | IC50 [5]: 13600 nM
< 10 |  | < 10 | [O-][S+]1CCc2nc(N3CC=C(c4c(F)cc(Cl)cc4F)CC3)nc(NC3(CO)CCC3)c21 (stereo not shown) [Compound 35] | 
